Data published in patent publication US20080107661A1, “MUC1 and ABL” (Dana-Farber Cancer Institute, Inc., priority 2006, published 2008).

How the values were obtained:
c-Abl = assay: Nuclear and cytosolic c-Abl in HeLa/vector and HeLa/MUC1 cells after genotoxic agents (subcellular fractionation, immunoblot); type: cell-based, human; details: 2 hours
Excerpt: Cell culture. Human HeLa cervical cancer cells, HCT116/vector (HCT116 colorectal carcinoma cells stably transfected with an empty vector), HCT116/MUC1 (HCT116 colorectal carcinoma cells stably transfected with an expression vector encoding a MUC1 polypeptide), HCT116/MUC1(Y46F) (HCT116 colorectal carcinoma cells stably transfected with an expression vector encoding a mutant MUC1 polypeptide containing an amino acid substitution at position 46 changing a tyrosine (Y) to phenylalanine (F)) colon cancer cells (Ren et al., (2002) J. Biol. Chem. 277: 17616-17622) and 293 cells were cultured in Dulbecco's modified medium with 10% heat-inactivated fetal bovine serum, 100 units/ml penicillin, 100 μg/ml streptomycin and 2 mM L-glutamine. Human ZR-75-1/vector (ZR-75-1 breast cancer cells stably transfected with an empty vector) and ZR-75-1/MUC1siRNA (ZR-75-1 breast cancer cells stably transfected with an expression vector encoding an siRNA specific for MUC1) breast cancer cells (Ren et al., (2004) Cancer Cell 5:163-175) were grown in RPMI1640 medium containing 10% heat-inactivated fetal bovine serum and antibiotics. Cells were treated with 1 μM adriamycin (ADR; Calbiochem), 100 μM cisplatin (CDDP; Sigma) or 10 μM STI571 (Gleevec; Novartis, Basel, Switzerland).
Subcellular fractionation. Nuclear fractions were prepared as described (Kharbanda et al., (1996) Cancer Res. 56:3617-3621). Cytosolic fractions were prepared as described (Hill et al., (2004) EMBO J. 23:2134-2145). Cell membrane fractions were prepared with the Plasma Membrane Extraction Kit (BioVision Research Products, Mountain View, Calif.). Mitochondria were purified as described (Ren et al., (2004) Cancer Cell 5:163-175; Ren et al., (2006) Oncogene 25:20-31).
(§1) Immunoprecipitations and immunoblot analysis. Cell lysates were prepared as described (Kharbanda et al., (1995) Nature 376:785-788); Yoshida et al., (2005) Nat. Cell Biol. 7:278-285). Soluble proteins were incubated with anti-MUC1-N (Kufe et al., (1984) Hybridoma 3:223-232), anti-MUC1-C (Ab5; Neomarker, Montreal, Quebec), anti-Flag (Sigma, St. Louis, Mo.), anti-c-Abl (Ab3; Oncogene, San Diego, Calif.) or anti-14-3-3 (Abcam Inc., Cambridge, Mass.) antibodies for 2 hours at 4° C., followed by precipitation with protein G-Sepharose beads for 1 hour. […] Intensity of the signals was determined by densitometric scanning. Statistical significance was determined by the Student's t-test.

MUC1-C = assay: Nuclear MUC1-C levels in HCT116/MUC1 cells after CDDP (immunoblot, densitometric scanning); type: cell-based, human; details: CDDP, 0, 1, 2 and 4 hours, over untreated cells
Experimental: as §1, with “Subcellular fractionation. Nuclear fractions were prepared as described (Kharbanda et al., (1996) Cancer Res. 56:3617-3621). Cytosolic fractions were prepared as described (Hill et al., (2004) EMBO J. 23:2134-2145). Cell membrane fractions were prepared with the Plasma Membrane Extraction Kit (BioVision Research Products, Mountain View, Calif.). Mitochondria were purified as described (Ren et al., (2004) Cancer Cell 5:163-175; Ren et al., (2006) Oncogene 25:20-31). Immunoprecipitations” for “Immunoprecipitations”

Question: Which “cytosolic c-Abl” value (c-Abl; HeLa/vector cells, CDDP) does the source give for `[NH2][Pt]([NH2])([Cl])[Cl]` [CDDP, cisplatin] here?
Answer: decrease in cytosolic c-Abl

Question: And the “nuclear targeting of c-Abl” value (c-Abl; HeLa/vector versus HeLa/MUC1 cells, 100 μM CDDP)?
Answer: MUC1 attenuates nuclear targeting of c-Abl

Question: And the “increase in nuclear MUC1-C levels” value (MUC1-C)?
Answer: two-fold
